Test results reported in US9090617B1, “Agonists of Src homology-2 containing protein tyrosine phosphatase-1 and treatment methods using the same” (National Taiwan University, priority 2011, dated 2015).
“Also recorded” adds a separate entry of the source.

What was measured:
HCC cells [1] = experiment: cells; settings: 72 h
Description: Points, mean; bars, SD (n=6).
Points, mean; bars, SD ([…]). […] The N-SH2 domain is in orange, the C-SH2 domain is in marine, the PTP domain is in hot pink, and the linkers between them are in gray. […] ELISA, enzyme-linked immunosorbent assay.

SHP-1 [2] = target: T1, SHP-1 (Homo sapiens, UniProt P29350); experiment: Phosphatase activity of SHP-1 immunoprecipitated from PLC5 cells, incubated with compound in vitro; format: biochemical; set-up: PLC5 protein extract was incubated with anti-SHP-1 antibody in immunoprecipitation buffer overnight; endogenous in cells; host or cells: PLC5 (PLC/PRF/5); settings: SHP-1-containing PLC5 extract, 10 or 100 nmol/L, 30 min, 4° C.
T1 sequence (P29350 whole entry): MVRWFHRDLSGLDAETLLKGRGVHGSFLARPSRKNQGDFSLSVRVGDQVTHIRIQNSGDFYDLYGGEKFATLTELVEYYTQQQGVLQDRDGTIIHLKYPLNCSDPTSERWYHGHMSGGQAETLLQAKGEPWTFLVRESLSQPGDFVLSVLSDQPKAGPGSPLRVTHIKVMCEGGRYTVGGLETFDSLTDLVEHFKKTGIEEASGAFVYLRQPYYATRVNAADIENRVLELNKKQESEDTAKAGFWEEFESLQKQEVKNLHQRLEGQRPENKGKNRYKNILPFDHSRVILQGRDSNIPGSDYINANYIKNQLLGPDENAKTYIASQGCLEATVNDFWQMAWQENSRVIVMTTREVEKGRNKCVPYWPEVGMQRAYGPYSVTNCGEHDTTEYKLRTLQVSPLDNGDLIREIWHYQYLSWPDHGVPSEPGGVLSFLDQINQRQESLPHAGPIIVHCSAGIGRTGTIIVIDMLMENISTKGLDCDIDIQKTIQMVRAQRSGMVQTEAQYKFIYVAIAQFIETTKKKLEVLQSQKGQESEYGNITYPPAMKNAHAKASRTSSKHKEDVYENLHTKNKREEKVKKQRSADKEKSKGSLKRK
Method: PLC5 protein extract was incubated with anti-SHP-1 antibody in immunoprecipitation buffer overnight. Protein G Sepharose 4 Fast flow (GE Healthcare Bio-Science) was added to each sample, followed by incubation for 3 hours at 4° C. with rotation. […] RediPlate 96 EnzChek Tyrosine Phosphatase Assay kit (R-22067) was used for SHP-1 activity assay (Molecular Probes).

PLC5 tumors = experiment: Subcutaneous PLC5 xenograft; format: in vivo, mice; settings: for average tumor size versus control mice at the end of treatment: SC PLC5 tumor-bearing mice
Method: All experimental procedures using these mice were done in accordance with protocols approved by the Institutional Laboratory Animal Care and Use Committee of National Taiwan University. Each mouse was inoculated s.c. in the dorsal flank with 1×10^6 PLC5 cells suspended in 0.1 mL of serum-free medium containing 50% Matrigel (BD Biosciences). When tumors reached 100 to 200 mm3, mice received SC-40 tosylate (10 or 20 mg/kg) orally once daily. Tumors were measured weekly using calipers, and their volumes were calculated using the following standard formula: width×length×height×0.52.
(§1) We established an HCC orthotopic model using luc2-expressed PLC5 cells inoculated into liver of nude mice. […] To further correlate the molecular mechanism with the anticancer effect in vivo, p-STAT3 and SHP-1 activity in tumor extract from vehicle- and SC-treated mice was analyzed by immunoblotting. […] The pharmacokinetics of SC-43 was determined (FIG. 25E).

[3] = system: p-STAT3, cyclin D1, survivin, Mc1-1; experiment: Western blot of STAT3-related proteins in HCC cells; format: cell-based; settings: HCC cells, 24 h
Method: Cells were treated with various compounds at 5 and 10 μM for 24 h. Cell lysates were analyzed by western blot.
HCC cells treated with SC-43 (10 μM for 24 h) were collected with RIPA lysis buffer. Antibodies for immunoblotting such as cyclin D1 was purchased from Santa Cruz Biotechnology. Other antibodies such as survivin, phospho-STAT3 (Tyr705), STAT3, Mc1-1, SOCS1, and SOCS3 were from Cell Signaling.

HCC cells [4] = experiment: Apoptosis analysis by flow cytometry (sub-G1); format: cell-based
Method: Apoptotic cells were measured by flow cytometry (sub-G1). After treatment with various compounds, cells were trypsinized, collected by centrifugation and resuspended in PBS. After centrifugation, the cells were washed in PBS and resuspended in […] (PI) staining solution. Specimens were incubated in the dark for 30 min at 37° C. and then analyzed with an EPICS Profile II flow cytometer (Coulter Corp., Hialeah, Fla.). All experiments were performed in triplicate
Collected cells were fixed in 75% Ethanol and stained with 20 ug/ml Propidium Iodide (PI). Sub-G1 analysis was performed by flow-cytometry. […] Points, mean; bars, SD (n=6).

phospho-STAT3 (Tyr705) = experiment: Phospho-STAT3 (Tyr705) sandwich ELISA; format: cell-based; settings: PLC5 cells
Method: A PathScan Phospho-Stat3 (Tyr705) Sandwich ELISA Kit was used for the detection of phospho-STAT3 (Cell Signaling, Danvers, Mass.). Cells were pre-treated with IL-6 1 ng/ml and then exposed with various compounds at 10 μM for 24 h. After incubation with cell lysates, both non-phospho- and phospho-Stat3 proteins are captured by the coated antibody. The expression of phospho-STAT3 was measured at 450 nm absorbance.
The decreased level of P-STAT3 induced by these derivatives was correlated with cell toxicity. In the other words, these derivatives induced cell death in part through inhibition of STAT3.
We also assayed the activation status of p-STAT3 by STAT3 ELISA. […] SC-1 or sorafenib-treated cell extracts were incubated with antibody against phosphorylated STAT3 at Y705. […] To evaluate the transcriptional activity, STAT3-binding region was cloned into Luc reporter. […] The firefly luciferase activity was evaluated and normalized by Renilla luciferase.
p-STAT3 activity: PLC5 cells treated with SC derivatives were collected in RIPA buffer and analyzed in p-STAT3 ELISA kit. The assay protocol follows the manufacturer.

SHP-1 [5] = target: T1, SHP-1; experiment: Phosphatase activity of recombinant SHP-1; format: biochemical; settings: 25 ng protein, 30 minutes
Method: RediPlate 96 EnzChek Tyrosine Phosphatase Assay kit (R-22067) was used for SHP-1 activity assay (Molecular Probes). Recombinant SHP-1 protein (25 ng) was incubated with either SC-43 or SC-40 at the indicated dose for 30 minutes and then analyzed by SHP-1 phosphatase activity.

[6] = system: PLC5/luc2 orthotopic tumors; experiment: HCC orthotopic model with PLC5/luc2 cells; format: in vivo, mice; settings: 10 mg/kg/day orally
Method: All experimental procedures using these mice were done in accordance with protocols approved by the Institutional Laboratory Animal Care and Use Committee of National Taiwan University. Each mouse was inoculated within liver […] with 1×10^4 PLC5/luc cells suspended in 0.1 mL of serum-free medium containing 50% Matrigel (BD Biosciences). […] Tumor growth was monitored by non-invasive in vivo imaging system (IVIS) image system twice weekly.
as §1

## Nc1cc(Oc2cccc(NS(=O)(=O)c3cccc(C(F)(F)F)c3)c2)ccc1[N+](=O)[O-] [SC-40, N-(3-(trifluoromethyl)benzene-sulfonyl)-3-(3-amino-4-nitrophenoxy)benzenamine]
HCC cells [1]
  viability of HCC cells / cytotoxicity: showed lower 50% inhibitory concentration, compared to sorafenib
SHP-1 [2]
  phosphatase activity of SHP-1 in vitro: increase phosphatase activity of SHP-1 in vitro
PLC5 tumors; 10 mg/kg/day orally
  p-STAT3 and SHP-1 activity in PLC5 tumor lysate: Down-regulation of p-STAT3 and elevation of SHP-1 activity
  average tumor size versus control mice at the end of treatment: less than half that of control mice
PLC5 tumors; PLC5 xenograft, 10 or 20 mg/kg orally once daily
  body weight of the animals: do not affect body weight of the animals
PLC5 tumors; SC-40 tosylate 10 or 20 mg/kg orally once daily
  antitumor effect on PLC5 tumors: has significant anti-tumor effect on PLC5 tumors
[3]
  p-STAT3 and STAT3-related proteins (Western blot): down-regulates phospho-STAT3-related signaling pathway in HCC
HCC cells [4]; HCC cells, 24 h
  apoptosis (sub-G1): show significant anti-cancer effects in HCC cells
HCC cells [4]; sorafenib-resistant HCC cells (SR1)
  apoptosis in sorafenib-resistant cells: resulted in significant apoptosis in sorafenib-resistant cells at submicromolar concentrations
phospho-STAT3 (Tyr705)
  p-STAT3 / STAT3 activity (phospho-STAT3 ELISA and luciferase reporter): induce strong inhibition of p-STAT3 activity; also recorded: showed more potent inhibition of the p-STAT3-related signaling pathway
SHP-1 [5]
  phosphatase activity of recombinant SHP-1: increase phosphatase activity of SHP-1 in vitro

## Cc1ccc(NC(=O)Nc2ccc(C)c(Oc3ccc(C#N)cc3)c2)cc1Oc1ccc(C#N)cc1 [SC-60, 1,3-bis(3-(4-cyanophenoxy)-4-methylphenyl)urea]
[6]
  anti-HCC effect and survival in orthotopic model: displayed significant survival benefits compared with mice treated with vehicle or sorafenib
PLC5 tumors; 10 mg/kg/day orally
  average tumor size versus control mice at the end of treatment: less than half of those of control mice
[3]
  p-STAT3 and STAT3-related proteins (Western blot): downregulated phospho-STAT3 (p-STAT3) at tyrosine 705 in a dose-dependent manner
phospho-STAT3 (Tyr705)
  p-STAT3 / STAT3 activity (phospho-STAT3 ELISA and luciferase reporter): showed significant inhibition of STAT3 activity
